From PMC11443518, “Undescribed Amaryllidaceae Alkaloids from Zephyranthes citrina and Their Cytotoxicity” (Journal of Natural Products, 2024)
Where two headings read alike, the source gives them in different places.

Key:
hAChE = target: T1, hAChE (Homo sapiens, UniProt P22303); experiment: biochemical; format: biochemical; conditions: recombinant AChE, Ellman, 37 °C
T1 construct: purchased University Hradec Kralove, Department of Chemistry, Faculty of Science
Protocol: (§1) The hAChE and hBChE activities were determined using a modified method of Ellman, as described by Hrabinova and co-workers against recombinant AChE and recombinant BChE (purchased from University Hradec Kralove, Department of Chemistry, Faculty of Science).[43] Other used chemicals were phosphate buffer solution (PBS, pH = 7.4), 5,5′-dithio-bis(2-nitrobenzoic) acid (Ellman’s reagent, DTNB), acetylthiocholine iodide (ATChI), butyrylthiocholine iodide (BTChI), and dimethyl sulfoxide (DMSO) (all chemicals were purchased from Sigma-Aldrich, Prague, Czech Republic).
(§2) Briefly, 8.3 μL of the corresponding enzyme, 283 μL of 5 mM DTNB, and 8.3 μL of the sample dilution in DMSO in different concentrations were added to the microplate. These solutions were incubated for 5 min at 37 °C. Then, 33.3 μL of 10 mM substrate (ATChI or BTChI) was added to initiate the reaction, and the whole reaction mixture was incubated for 2 min at 37 °C. […] This difference after 1 min was used to calculate the percentage of inhibitory potential of the given derivative. Each measurement was repeated three times for every concentration of the compound. 8.3 μL DMSO was used as a blank. The % inhibition was calculated according to the following formula: [drawing 3] where ΔABl is the increase of absorbance of the blank sample and ΔASa is the increase of absorbance of the measured sample.

hBChE = target: T2, hBChE (Homo sapiens, UniProt P06276); experiment: biochemical; format: biochemical; conditions: recombinant BChE, Ellman, 37 °C
T2 construct: purchased University Hradec Kralove, Department of Chemistry, Faculty of Science
Protocol: as §1, §2

[1] = system: A2780 (ovarian carcinoma); experiment: WST-1 cell proliferation assay, cytotoxicity screening; format: cell-based; conditions: Homo sapiens, read-out: growth percent (GP) A2780
Text: (§3) Selected human tumor and nontumor cell lines Jurkat (acute T-cell leukemia), MOLT-4 (acute lymphoblastic leukemia), A549 (lung carcinoma), HT-29 (colorectal adenocarcinoma), PANC-1 (pancreas epithelioid carcinoma), A2780 (ovarian carcinoma), HeLa (cervix adenocarcinoma), MCF-7 (breast adenocarcinoma), SAOS-2 (osteosarcoma) and MRC-5 (nontumor lung fibroblasts) were purchased from European Collection of Authenticated Cell Cultures (ECACC, Salisbury, UK) and cultured according to the provider’s culture method guidelines. […] The cells in low passage number (nontumor primary cell line MRC-5 was used for a maximum of 10 passages and cancer cell lines were used for a maximum of 20 passages) and in an exponential growth phase were used for this study.
(§4) Each cell line was seeded at a previously established optimal density (1 × 10^3 to 50 × 10^3 cells per well) in a 96-well plate (TPP, Trasadingen, Switzerland) and cells were allowed to settle overnight. During screening tests for cytotoxicity, cells were treated with alkaloids at a final concentration of 10 μM for 48 h. Doxorubicin (Sigma-Aldrich, St. Louis, USA), at a concentration of 1 μM, was used as a positive control. At the end of the culture period, the WST-1 proliferation assay (Roche, Basel, Switzerland) was performed according to the manufacturer’s protocol. The absorbance was determined using a Tecan Spark microplate reader (Tecan, Männedorf, Switzerland). Each value is the mean of three independent experiments and represents the percentage of the proliferation of control, nontreated cells (100%). The growth percent (GP) value as the mean of the proliferation decrease was calculated for each cell line and derivative tested.

A549 (lung carcinoma) = experiment: as above; format: cell-based; conditions: Homo sapiens, read-out: growth percent (GP) A549
Text: as §3, §4

[2] = system: HT-29 (colorectal adenocarcinoma); experiment: as above; format: cell-based; conditions: Homo sapiens, read-out: growth percent (GP) HT-29
Text: as §3, §4

[3] = system: HeLa (cervix adenocarcinoma); experiment: as above; format: cell-based; conditions: Homo sapiens, 48 h, read-out: growth percent (GP) HeLa
Text: as §3, §4

[4] = system: Jurkat (acute T-cell leukemia); experiment: as above; format: cell-based; conditions: Homo sapiens, 48 h, read-out: growth percent (GP) Jurkat
Text: as §3, §4

[5] = system: MRC-5 (nontumor lung fibroblasts); experiment: as above; format: cell-based; conditions: Homo sapiens, read-out: growth percent (GP) MRC-5
Text: as §3, §4

[6] = system: PANC-1 (pancreas epithelioid carcinoma); experiment: as above; format: cell-based; conditions: Homo sapiens, read-out: growth percent (GP) PANC-1
Text: as §3, §4

SAOS-2 (osteosarcoma) = experiment: as above; format: cell-based; conditions: Homo sapiens, read-out: growth percent (GP) SAOS-2
Text: as §3, §4

[7] = system: MCF-7 (breast adenocarcinoma); experiment: as above; format: cell-based, human; conditions: for activity at 10 µM: Homo sapiens, read-out: growth percent (GP) MCF-7
Text: as §3, §4

[8] = system: MOLT-4 (acute lymphoblastic leukemia); experiment: as above; format: cell-based, human; conditions: for activity at 10 µM: Homo sapiens, read-out: growth percent (GP) MOLT-4
Text: as §3, §4

[9] = system: nine human tumor and one nontumor cell lines; experiment: Cytotoxicity screening across the whole panel of cell lines; format: cell-based; conditions: for activity at 10 µM: Homo sapiens, read-out: GP value across the tested cell lines
Text: Concerning the cytotoxicity of alkaloids isolated from Z. citrina, initially, Prakash and Vedanayaki investigated the MeOH extract of the bulbs for its in vitro cytotoxic activity using the MTT assay against three human cancer cell lines from different tissue origins: cervical cancer (HeLa), breast cancer (MCF-7), and oral squamous carcinoma (SCC-9). […] In this context, and to assess potential negative effects on human cell cultures, compounds 1, and 3–27 were screened in our study for cytotoxicity using a 10 μM single-dose regimen. The results were compared with those using the clinically approved antineoplastic agent doxorubicin at 1 μM. The effect on cell growth was investigated on nine human tumor and one nontumor cell lines, namely Jurkat (acute T-cell leukemia), MOLT-4 (acute lymphoblastic leukemia), A549 (lung carcinoma), HT-29 (colorectal adenocarcinoma), PANC-1 (pancreas epithelioid carcinoma), A2780 (ovarian carcinoma), HeLa (cervix adenocarcinoma), MCF-7 (breast adenocarcinoma), SAOS-2 (osteosarcoma) and MRC-5 (nontumor lung fibroblasts). […] No toxicity is valuable information, especially for compound 18, as it is a potent inhibitor of hAChE and hBChE.[27]
Selected human tumor and nontumor cell lines Jurkat (acute T-cell leukemia), MOLT-4 (acute lymphoblastic leukemia), A549 (lung carcinoma), HT-29 (colorectal adenocarcinoma), PANC-1 (pancreas epithelioid carcinoma), A2780 (ovarian carcinoma), HeLa (cervix adenocarcinoma), MCF-7 (breast adenocarcinoma), SAOS-2 (osteosarcoma) and MRC-5 (nontumor lung fibroblasts) were purchased from European Collection of Authenticated Cell Cultures (ECACC, Salisbury, UK) and cultured according to the provider’s culture method guidelines. All cell lines were maintained at 37 °C in a humidified 5% carbon dioxide and 95% air incubator. The cells in low passage number (nontumor primary cell line MRC-5 was used for a maximum of 10 passages and cancer cell lines were used for a maximum of 20 passages) and in an exponential growth phase were used for this study.
as §4

[10] = 10 μM single dose, 48-h interval, all tested cell lines
[11] = c = 10 μM, 48 h, % of proliferation of nontreated control
[12] = A2780, c = 10 μM, 48 h, % of proliferation of nontreated control
[13] = A549, c = 10 μM, 48 h, % of proliferation of nontreated control
[14] = HT-29, c = 10 μM, 48 h, % of proliferation of nontreated control
[15] = c = 10 μM, % of proliferation of nontreated control
[16] = MRC5, c = 10 μM, 48 h, % of proliferation of nontreated control
[17] = PANC-1, c = 10 μM, 48 h, % of proliferation of nontreated control
[18] = SAOS-2, c = 10 μM, 48 h, % of proliferation of nontreated control
[19] = MCF7, c = 10 μM, 48 h, % of proliferation of nontreated control
[20] = MOLT-4, c = 10 μM, 48 h, % of proliferation of nontreated control

T2 sequence (P06276 29-602): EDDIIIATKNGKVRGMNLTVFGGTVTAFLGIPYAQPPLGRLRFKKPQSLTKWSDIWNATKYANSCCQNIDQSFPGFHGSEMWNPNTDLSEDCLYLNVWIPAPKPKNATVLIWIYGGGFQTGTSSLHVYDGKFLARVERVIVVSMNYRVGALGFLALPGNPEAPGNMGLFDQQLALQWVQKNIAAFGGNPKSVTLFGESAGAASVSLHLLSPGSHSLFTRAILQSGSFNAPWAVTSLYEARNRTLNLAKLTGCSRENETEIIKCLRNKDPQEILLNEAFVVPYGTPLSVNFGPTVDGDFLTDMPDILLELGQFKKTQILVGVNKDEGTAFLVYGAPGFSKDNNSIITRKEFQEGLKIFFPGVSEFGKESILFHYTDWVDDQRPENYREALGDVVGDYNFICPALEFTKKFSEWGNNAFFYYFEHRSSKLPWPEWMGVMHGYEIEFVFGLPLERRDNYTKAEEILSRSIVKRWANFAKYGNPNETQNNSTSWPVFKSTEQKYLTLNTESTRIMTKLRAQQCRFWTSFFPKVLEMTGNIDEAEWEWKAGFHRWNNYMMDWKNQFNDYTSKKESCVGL
T1 sequence (P22303 32-614): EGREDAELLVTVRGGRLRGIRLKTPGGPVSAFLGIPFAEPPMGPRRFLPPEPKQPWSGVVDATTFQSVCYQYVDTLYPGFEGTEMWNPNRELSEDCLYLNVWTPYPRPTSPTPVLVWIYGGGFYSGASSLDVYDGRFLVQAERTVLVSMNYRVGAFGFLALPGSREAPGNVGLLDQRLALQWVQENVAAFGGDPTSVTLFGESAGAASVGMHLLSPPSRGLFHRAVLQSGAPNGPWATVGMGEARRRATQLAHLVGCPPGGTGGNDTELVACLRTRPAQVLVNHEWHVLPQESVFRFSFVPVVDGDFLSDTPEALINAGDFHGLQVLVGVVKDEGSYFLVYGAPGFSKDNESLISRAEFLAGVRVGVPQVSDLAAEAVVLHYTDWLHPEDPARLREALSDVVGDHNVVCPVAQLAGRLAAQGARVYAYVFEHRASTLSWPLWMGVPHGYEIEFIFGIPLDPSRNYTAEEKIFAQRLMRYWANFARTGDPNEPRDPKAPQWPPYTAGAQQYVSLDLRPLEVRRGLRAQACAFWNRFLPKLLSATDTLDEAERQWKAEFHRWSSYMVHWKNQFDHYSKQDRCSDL

SMILES	activity at 10 µM ([1]; A2780, 48 h) [%]	activity at 10 µM (A549 (lung carcinoma); A549, 48 h) [%]	activity at 10 µM ([2]; HT-29, 48 h) [%]	activity at 10 µM [3] [%]	activity at 10 µM [4] [%]	activity at 10 µM ([5]; MRC5, 48 h) [%]	activity at 10 µM ([6]; PANC-1, 48 h) [%]	activity at 10 µM (SAOS-2 (osteosarcoma); SAOS-2, 48 h) [%]	activity at 10 µM ([7]; MCF7, 48 h) [%]	activity at 10 µM ([8]; MOLT-4, 48 h) [%]	activity at 10 µM ([9]; 48 h) [%]	further results
COc1cc2c(cc1OC)[C@@H]1[C@H](O)[C@@H](OC)[C@H](O)C3=CCN(C2=O)[C@H]31 [Compound 2, 6-oxonarcissidine]												IC50 (hAChE): > 100 µM; IC50 (hBChE): > 100 µM
O[C@@H]1C=C[C@]23CCN(Cc4cc5c(cc42)OCO5)[C@H]3C1 [Compound 14]	98	80	84	100	91	83	84	79	79	92	> 50	
COc1cc2c(cc1OC)[C@@]13C=CC(O)C[C@@H]1N(CC3)C2 (some centres unmarked) [Compound 15, maritidine]	94	95	93	101	104	104	91	94	98	100	> 50	GP value across the tested cell lines [9, 10]: lack of inhibitory activity
COc1cc2c(cc1O)CN1CC[C@@]23C=CC(O)C[C@H]13 (some centres unmarked) [Compound 16]	101	106	103	114	102	97	101	98	105	110	> 50	
COC1C=C[C@@]23CCN(Cc4cc5c(cc42)OCO5)[C@@H]3C1 (some centres unmarked) [Compound 17]	55	60	71	75	52	82	77	76	49	32	> 50	growth percent (GP) MCF-7 [7, 11]: slight inhibition of growth; growth percent (GP) MOLT-4 [8, 11]: slight inhibition of growth
COc1cc(-c2cccc3c2N(C)CC3)c(CN2CC[C@@]34C=C[C@H](O)C[C@@H]3Oc3c(OC)ccc(c34)C2)c(OC)c1OC [Compound 18, narcielline]	88	110	106	90	103	111	111	106	115	95	> 50	
COc1cc2c(c(OC)c1OC)[C@@H](O)O[C@@H]1CC=C3CCN(C)[C@H]3[C@H]21 [Compound 21]												activity at 10 µM [1, 12]: 95%; activity at 10 µM (A549 (lung carcinoma); [13]): 101%; activity at 10 µM [2, 14]: 83%; activity at 10 µM [3, 15]: 112%; activity at 10 µM [4, 15]: 91%; activity at 10 µM [5, 16]: 101%; activity at 10 µM [6, 17]: 90%; activity at 10 µM (SAOS-2 (osteosarcoma); [18]): 105%; activity at 10 µM [7, 19]: 92%; activity at 10 µM [8, 20]: 93%; activity at 10 µM [9, 10]: > 50%
COc1cc2c(cc1O)C(=O)O[C@@H]1CC=C3CCN(C)[C@H]3[C@H]21 [Compound 22]	94	109	106	96	100	93	92	103	102	100	> 50	
COc1cc2c(cc1OC)[C@@H]1[C@H](O)[C@@H](O)C=C3CCN(C2)[C@H]31 [Compound 24]	99	104	114	116	109	96	109	98	104	103	> 50	
COc1cc2c(cc1O)[C@@H]1[C@H](O)[C@@H](OC)C=C3CCN(C2)[C@H]31 [Compound 25]												activity at 10 µM [1, 12]: 125%; activity at 10 µM (A549 (lung carcinoma); [13]): 83%; activity at 10 µM [2, 14]: 94%; activity at 10 µM [3, 15]: 110%; activity at 10 µM [4, 15]: 91%; activity at 10 µM [5, 16]: 92%; activity at 10 µM [6, 17]: 83%; activity at 10 µM (SAOS-2 (osteosarcoma); [18]): 71%; activity at 10 µM [7, 19]: 102%; activity at 10 µM [8, 20]: 88%; activity at 10 µM [9, 10]: > 50%
